According to US20070078161A1, “Crystalline forms of (+)- and (-) erythro-mefloquine hydrochloride” (priority 2003, published 2007):

Assays:
[1] = solubility behaviour in ethanol/water mixtures; format: physicochemical
Source text: This effect may be used to initiate precipitation and crystallisation by the addition of water to a solution of (+)- or (−)-mefloquine hydrochloride and also to apply seeding techniques using seeds with a desired morphology such as crystalline form A in cubic or cube-like form. However, other non-solvents may be used to initiate precipitation from solution in a solvent such as hydrocarbons (hexane, heptane, cyclohexane and methylcyclohexane) or ethers (t-butyl methyl ether).

[2] = grinding of form A sample, X-ray powder diffraction; format: physicochemical; details: slightly ground to particle size approximately 1 to 10 μm
Procedure: This sample was slightly ground to reduce the particle size to approximately 1 to 10 μm and to avoid this textural effect. The strongest peak intensities are thus reduced and a few of the small peaks disappear.
Powder X-ray Diffraction (PXRD): PXRD is performed on a Philips 1710 powder X-ray diffractometer using CuKα radiation. D-spacings are calculated from the 2θ values using the wavelength of 1.54060 Å. Generally, 2θ values are within an error of ±0.1-0.2°. The experimental error on the d-spacing values is therefore dependent on the peak location.

[3] = suspensions of mixtures of forms A, B and C, 2° C. to 75° C.

## Cl.OC(c1cc(C(F)(F)F)nc2c(C(F)(F)F)cccc12)C1CCCCN1 (stereo not drawn) [(+)- or (−)-mefloquine hydrochloride]
[1]; lower water amounts
  solubility on addition of certain amounts of water to pure ethanol: increased
[1]; water content of above 50% (v/v)
  solubility relative to pure ethanol: lower than in pure ethanol

## Cl.OC(c1cc(C(F)(F)F)nc2c(C(F)(F)F)cccc12)C1CCCCN1 (stereo not shown) [form A]
[2]
  crystal form after grinding: still present after grinding

## Cl.OC(c1cc(C(F)(F)F)nc2c(C(F)(F)F)cccc12)C1CCCCN1 (stereo not shown) [form B]
[3]
  relative stability of crystalline forms: metastable
